For the experiment, the target named is human full-length MKNK1 (Homo sapiens (Human), UniProt Q9BUB5, T344D). As to the kind of experiment: MKNK1 kinase assay (MKNK1 TR-FRET assay). As to conditions: GST-MKNK1 (T344D), 10 μM ATP, average or median values. It counts as biochemical. As to the method: MKNK1-inhibitory activity of compounds of the present invention was quantified employing the MKNK1 TR-FRET assay as described in the following paragraphs.
Sequence of human full-length MKNK1 (Q9BUB5 other isoform, or with tags, fused parts or gaps T344D): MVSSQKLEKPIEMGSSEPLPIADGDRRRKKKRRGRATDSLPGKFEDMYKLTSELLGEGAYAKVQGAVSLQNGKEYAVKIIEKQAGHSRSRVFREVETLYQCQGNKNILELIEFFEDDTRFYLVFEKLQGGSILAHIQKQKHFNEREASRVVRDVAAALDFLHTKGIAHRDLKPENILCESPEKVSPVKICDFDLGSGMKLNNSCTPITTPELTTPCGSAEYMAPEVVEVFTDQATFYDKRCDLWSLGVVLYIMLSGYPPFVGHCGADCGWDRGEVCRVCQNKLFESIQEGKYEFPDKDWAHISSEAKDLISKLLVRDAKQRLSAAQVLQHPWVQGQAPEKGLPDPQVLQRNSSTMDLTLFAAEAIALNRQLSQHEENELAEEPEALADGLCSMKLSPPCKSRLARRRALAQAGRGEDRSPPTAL
As substrate for the kinase reaction the biotinylated peptide biotin-Ahx-[…] (C-terminus in amide form) was used which can be purchased e.g. form the company Biosyntan (Berlin-Buch, Germany).
For the assay […] of a 100 fold concentrated solution of the test compound in DMSO was pipetted into a black low volume 384 well microtiter plate (Greiner Bio-One, Frickenhausen, Germany), 2 μL of a solution of MKNK1 in aqueous assay buffer [50 mM HEPES pH 7.5, 5 mM magnesium chloride, 1.0 mM dithiothreitol, 0.005% (v/v) Nonidet-P40 (Sigma)] was added and the mixture was incubated for 15 min at 22° C. to allow pre-binding of the test compounds to the enzyme before the start of the kinase reaction. Then the kinase reaction was started by the addition of 3 μL of a solution of adenosine-tri-phosphate (ATP, 16.7 μM=>final conc. in the 5 μL assay volume is 10 μM) and substrate (0.1 μM=>final conc. in the 5 μL assay volume is 0.06 μM) in assay buffer and the resulting mixture was incubated for a reaction time of 45 min at 22° C. The concentration of MKNK1 was adjusted depending of the activity of the enzyme lot and was chosen appropriate to have the assay in the linear range, typical concentrations were in the range of 0.05 μg/ml. The reaction was stopped by the addition of 5 μL of a solution of TR-FRET detection reagents (5 nM streptavidine-XL665 [Cisbio Bioassays, Codolet, France] and 1 nM anti-ribosomal protein S6 (pSer236)-antibody from Invitrogen [#44921G] and 1 nM LANCE EU-W1024 labeled ProteinG [Perkin-Elmer, product no. AD0071]) in an aqueous EDTA-solution (100 mM EDTA, 0.1% (w/v) bovine serum albumin in 50 mM HEPES pH 7.5).
The resulting mixture was incubated for 1 h at 22° C. to allow the formation of complex between the phosphorylated biotinylated peptide and the detection reagents. Subsequently the amount of phosphorylated substrate was evaluated by measurement of the resonance energy transfer from the Eu-chelate to the streptavidine-XL. Therefore, the fluorescence emissions at 620 nm and 665 nm after excitation at 350 nm were measured in a TR-FRET reader, e.g. a Rubystar (BMG Labtechnologies, Offenburg, Germany) or a Viewlux (Perkin-Elmer). The ratio of the emissions at 665 nm and at 622 nm was taken as the measure for the amount of phosphorylated substrate.
As usually defined, the IC50 is the midpoint of a concentration-inhibition curve. A lower IC50 goes with greater potency. `COc1cccc2oc(-c3cnc4ccc(OCCCSC)nn34)cc12` [Example I.1, 3-(4-Methoxy-1-benzofuran-2-yl)-6-[3-(methylsulfanyl)propoxy]imidazo[1,2-b]-pyridazine] displayed an IC50 of 21 nM. The same measure for `CSCCCOc1ccc2ncc(-c3cc4ccccc4o3)n2n1` [Example I.2, 3-(1-Benzofuran-2-yl)-6-[3-(methylsulfanyl)propoxy]imidazo[1,2-b]pyridazine]: 11 nM. Then `CSCCCCOc1ccc2ncc(-c3cc4ccccc4o3)n2n1` [Example I.3, 3-(1-Benzofuran-2-yl)-6-[4-(methylsulfanyl)butoxy]imidazo[1,2-b]pyridazine], with 27 nM; and `CSCCOc1ccc2ncc(-c3cc4ccccc4o3)n2n1` [Example I.4, 3-(1-Benzofuran-2-yl)-6-[2-(methylsulfanyl)ethoxy]imidazo[1,2-b]pyridazine], with 16 nM; and `COc1cccc2oc(-c3cnc4ccc(OCCC[S+](C)[O-])nn34)cc12` (stereo not shown) [Example II.1, 3-(4-Methoxy-1-benzofuran-2-yl)-6-[3-(methylsulfinyl)propoxy]imidazo[1,2-b]pyridazine], with 2 nM.

Regarding `C[S+]([O-])CCCOc1ccc2ncc(-c3cc4ccccc4o3)n2n1` (stereo not shown) [Example II.2, 3-(1-Benzofuran-2-yl)-6-[3-(methylsulfinyl)propoxy]imidazo[1,2-b]pyridazine], inhibition was half-maximal at 4 nM (IC50). In turn, `C[S+]([O-])CCCCOc1ccc2ncc(-c3cc4ccccc4o3)n2n1` (stereo not shown) [Example II.3, 3-(1-Benzofuran-2-yl)-6-[4-(methylsulfinyl)butoxy]imidazo[1,2-b]pyridazine] had an IC50 of 5 nM. The same measure for `CS(=O)(=O)CCCOc1ccc2ncc(-c3cc4ccccc4o3)n2n1` [Example III.1, 3-(1-Benzofuran-2-yl)-6-[3-(methylsulfonyl)propoxy]imidazo[1,2-b]pyridazine]: 5 nM; for `COc1ccc2oc(-c3cnc4ccc(OCCCS(C)(=O)=O)nn34)cc2c1` [Example III.2, 3-(5-Methoxy-1-benzofuran-2-yl)-6-[3-(methylsulfonyl)propoxy]imidazo[1,2-b]pyridazine]: 5 nM; for `COc1cccc2oc(-c3cnc4ccc(OCCCS(C)(=O)=O)nn34)cc12` [Example III.3, 3-(4-Methoxy-1-benzofuran-2-yl)-6-[3-(methylsulfonyl)propoxy]imidazo[1,2-b]pyridazine]: 2 nM. Then `CS(=O)(=O)CCCOc1ccc2ncc(-c3cc4cc(F)ccc4o3)n2n1` [Example III.4, 3-(5-Fluoro-1-benzofuran-2-yl)-6-[3-(methylsulfonyl)propoxy]imidazo[1,2-b]pyridazine], with 7 nM; and `CS(=O)(=O)CCCOc1ccc2ncc(-c3cc4cc(Cl)ccc4o3)n2n1` [Example III.5, 3-(5-Chloro-1-benzofuran-2-yl)-6-[3-(methylsulfonyl)propoxy]imidazo[1,2-b]pyridazine], with 15 nM; and `CS(=O)(=O)CCCOc1ccc2ncc(-c3cc4cccc(F)c4o3)n2n1` [Example III.6, 3-(7-Fluoro-1-benzofuran-2-yl)-6-[3-(methylsulfonyl)propoxy]imidazo[1,2-b]pyridazine], with 48 nM. In turn, `Cc1c(-c2cnc3ccc(OCCCS(C)(=O)=O)nn23)oc2ccccc12` [Example III.7, 3-(3-Methyl-1-benzofuran-2-yl)-6-[3-(methylsulfonyl)propoxy]imidazo[1,2-b]pyridazine] displayed an IC50 of 61 nM. The IC50 values of the last two compounds are within 1.5-fold of each other. On to `Cc1cccc2cc(-c3cnc4ccc(OCCCS(C)(=O)=O)nn34)oc12` [Example III.8, 3-(7-Methyl-1-benzofuran-2-yl)-6-[3-(methylsulfonyl)propoxy]imidazo[1,2-b]pyridazine], for which half-maximal inhibition (IC50) required 70 nM. The IC50 values of the last two compounds are within 1.5-fold of each other. Then `CS(=O)(=O)CCCOc1ccc2ncc(-c3cc4c(F)cccc4o3)n2n1` [Example III.9, 3-(4-Fluoro-1-benzofuran-2-yl)-6-[3-(methylsulfonyl)propoxy]imidazo[1,2-b]pyridazine], with 17 nM; and `Cc1cc2ncc(-c3cc4ccccc4o3)n2nc1OCCCS(C)(=O)=O` [Example III.10, 3-(1-Benzofuran-2-yl)-7-methyl-6-[3-(methylsulfonyl)propoxy]imidazo[1,2-b]-pyridazine], with 11 nM; and `CS(=O)(=O)CCCOc1nn2c(-c3cc4ccccc4o3)cnc2cc1-c1ccccc1` [Example III.11, 3-(1-Benzofuran-2-yl)-6-[3-(methylsulfonyl)propoxy]-7-phenylimidazo[1,2-b]-pyridazine], with 17 nM. Then `COc1nccc2oc(-c3cnc4ccc(OCCCS(C)(=O)=O)nn34)cc12` [Example III.12, 3-(4-Methoxyfuro[3,2-c]pyridin-2-yl)-6-[3-(methylsulfonyl)propoxy]-imidazo-[1,2-b]pyridazine], with 12 nM; and `CS(=O)(=O)CCCOc1ccc2ncc(-c3cc4ncccc4o3)n2n1` [Example III.14, 3-(Furo[3,2-b]pyridin-2-yl)-6-[3-(methylsulfonyl)propoxy]imidazo[1,2-b]pyridazine], with 60 nM. As to `COc1cccc2oc(-c3cnc4ccc(OCCCS(C)(=O)=NC(=O)C(F)(F)F)nn34)cc12` (stereo not shown) [Example IV.1, 2,2,2-Trifluoro-N-[(3-{[3-(4-methoxy-1-benzofuran-2-yl)imidazo[1,2-b]pyridazin-6-yl]oxy}propyl)(methyl)oxido-lambda^6-sulfanylidene]acetamide], it took 9 nM to reach half-maximal inhibition (IC50). Against the preceding compound, the IC50 is about 6.7-fold lower.

On to `CS(=N)(=O)CCCOc1ccc2ncc(-c3cc4ccccc4o3)n2n1` (stereo not shown) [Example IV.4, 3-(1-Benzofuran-2-yl)-6-[3-(S-methylsulfonimidoyl)propoxy]imidazo[1,2-b]pyridazine], for which the IC50 is 4 nM. On to `CS(=O)(CCCCOc1ccc2ncc(-c3cc4ccccc4o3)n2n1)=NC(=O)C(F)(F)F` (stereo not shown) [Example IV.5, N-[(4-{[3-(1-Benzofuran-2-yl)imidazo[1,2-b]pyridazin-6-yl]oxy}butyl)(methyl)oxido-lambda^6-sulfanylidene]-2,2,2-trifluoroacetamide], for which the IC50 worked out at 15 nM. The compound `CS(=O)(CCOc1ccc2ncc(-c3cc4ccccc4o3)n2n1)=NC(=O)C(F)(F)F` (stereo not shown) [Example IV.7, N-[(2-{[3-(1-Benzofuran-2-yl)imidazo[1,2-b]pyridazin-6-yl]oxy}ethyl)(methyl)oxido-lambda^6-sulfanylidene]-2,2,2-trifluoroacetamide] showed an IC50 of 47 nM.

Take `CS(=O)(CCCOc1ccc2ncc(-c3cc4ccccc4o3)n2n1)=NC#N` (stereo not shown) [Example IV.8, [(3-{[3-(1-Benzofuran-2-yl)imidazo[1,2-b]pyridazin-6-yl]oxy}propyl)(methyl)oxido-lambda^6-sulfanylidene]cyanamide]: half-maximal inhibition (IC50) required 7 nM. Then `COc1nccc2oc(-c3cnc4ccc(OCCCS(C)(=O)=NC#N)nn34)cc12` (stereo not shown) [Example IV.9, [(3-{[3-(4-Methoxyfuro[3,2-c]pyridin-2-yl)imidazo[1,2-b]pyridazin-6-yl]oxy}propyl)(methyl)oxido-lambda^6-sulfanylidene]cyanamide], with 9 nM. For `COc1nccc2oc(-c3cnc4ccc(OCCCS(C)(=N)=O)nn34)cc12` (stereo not shown) [Example IV.10, 3-(4-Methoxyfuro[3,2-c]pyridin-2-yl)-6-[3-(S-methylsulfonimidoyl)propoxy]-imidazo[1,2-b]pyridazine], the IC50 is 9 nM. Then `CS(=O)(=O)CCCOc1ccc2ncc(-c3cc4cnccc4o3)n2n1` [III.13, 3-(Furo[3,2-c]pyridin-2-yl)-6-[3-(methylsulfonyl)propoxy]imidazo[1,2-b]-pyridazine], with 28 nM.

The values are drawn from US9320737B2, “Substituted imidazopyridazines” (Bayer Intellectual Property GmbH, priority 2011, dated 2016).
